What was measured:
Assay in all cases: Greenhouse herbicidal activity assay, post-emergence
Type in all cases: in vivo
Details in all cases: Post-emergence test, rate 150 g a.i./hm^2, grade by fresh weight inhibition rate
[1] = test system: Echinochloa crusgalli
In short: (§1)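 Weeds were sown in nutrient soil in 7 cm pots and grown in a growth chamber to the 3-6 leaf stage, then foliar-sprayed, air-dried and returned to the chamber. Fresh weight inhibition was scored 14-21 days later in bands from A (≥80% to 100%) to E (<20%).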

[2] = test system: Digitaria sanguinalis
In short: as §1

[3] = test system: Cyperus iria
In short: as §1

[4] = test system: Eclipta prostrata
In short: as §1

[5] = test system: Leptochloa chinensis
In short: as §1

SMILES | Control efficacy grade, Echinochloa crusgalli [1] | Control efficacy grade, Digitaria sanguinalis [2] | Control efficacy grade, Cyperus iria [3] | Control efficacy grade, Eclipta prostrata [4] | Control efficacy grade, Leptochloa chinensis [5] | pest or weed control at 150 g/ha ([1]; Echinochloa crus-galli, read-out: Control efficacy grade, Echinochloa crusgalli) [%] | pest or weed control at 150 g/ha ([2]; Digitaria sanguinalis, read-out: Control efficacy grade, Digitaria sanguinalis) [%] | pest or weed control at 150 g/ha ([3]; Cyperus iria, read-out: Control efficacy grade, Cyperus iria) [%] | pest or weed control at 150 g/ha ([4]; Eclipta prostrata, read-out: Control efficacy grade, Eclipta prostrata) [%] | pest or weed control at 150 g/ha ([5]; Dinebra chinensis, read-out: Control efficacy grade, Leptochloa chinensis) [%]
CCCC[S+]([O-])c1c(S(C)(=O)=O)ccc(C(=O)Nc2nnc(CC)o2)c1Cl (racemic) [Compound 3-394] | A (Fresh weight inhibition rate≥80% to 100%) | A (Fresh weight inhibition rate≥80% to 100%) | A (Fresh weight inhibition rate≥80% to 100%) | A (Fresh weight inhibition rate≥80% to 100%) | A (Fresh weight inhibition rate≥80% to 100%) | – | – | – | – | –
CCc1nnc(NC(=O)c2ccc(S(C)(=O)=O)c([S+]([O-])CC(C)C)c2Cl)o1 (racemic) [Compound 3-410] | C (Fresh weight inhibition rate≥40% to <60%) | A (Fresh weight inhibition rate≥80% to 100%) | A (Fresh weight inhibition rate≥80% to 100%) | A (Fresh weight inhibition rate≥80% to 100%) | A (Fresh weight inhibition rate≥80% to 100%) | – | – | – | – | –
CCc1nnc(NC(=O)c2ccc(S(C)(=O)=O)c([S+]([O-])CC3CC3)c2Cl)o1 (racemic) [Compound 3-415] | A (Fresh weight inhibition rate≥80% to 100%) | A (Fresh weight inhibition rate≥80% to 100%) | A (Fresh weight inhibition rate≥80% to 100%) | A (Fresh weight inhibition rate≥80% to 100%) | A (Fresh weight inhibition rate≥80% to 100%) | – | – | – | – | –
CCc1nnc(NC(=O)c2ccc(S(C)(=O)=O)c([S+]([O-])C3CC3)c2Cl)o1 (racemic) [Compound 3-420] | A (Fresh weight inhibition rate≥80% to 100%) | A (Fresh weight inhibition rate≥80% to 100%) | A (Fresh weight inhibition rate≥80% to 100%) | A (Fresh weight inhibition rate≥80% to 100%) | A (Fresh weight inhibition rate≥80% to 100%) | – | – | – | – | –
CCc1nnc(NC(=O)c2ccc(S(C)(=O)=O)c([S+]([O-])C3CCC3)c2Cl)o1 (racemic) [Compound 3-425] | A (Fresh weight inhibition rate≥80% to 100%) | A (Fresh weight inhibition rate≥80% to 100%) | A (Fresh weight inhibition rate≥80% to 100%) | A (Fresh weight inhibition rate≥80% to 100%) | A (Fresh weight inhibition rate≥80% to 100%) | – | – | – | – | –
CCc1nnc(NC(=O)c2ccc(S(C)(=O)=O)c([S+]([O-])C3CCCC3)c2Cl)o1 (racemic) [Compound 3-430] | A (Fresh weight inhibition rate≥80% to 100%) | A (Fresh weight inhibition rate≥80% to 100%) | A (Fresh weight inhibition rate≥80% to 100%) | A (Fresh weight inhibition rate≥80% to 100%) | A (Fresh weight inhibition rate≥80% to 100%) | – | – | – | – | –
CCc1nnc(NC(=O)c2ccc(S(C)(=O)=O)c([S+]([O-])C3CCCCC3)c2Cl)o1 (racemic) [Compound 3-435] | A (Fresh weight inhibition rate≥80% to 100%) | A (Fresh weight inhibition rate≥80% to 100%) | A (Fresh weight inhibition rate≥80% to 100%) | A (Fresh weight inhibition rate≥80% to 100%) | A (Fresh weight inhibition rate≥80% to 100%) | – | – | – | – | –
CCc1nnc(NC(=O)c2ccc(S(C)(=O)=O)c([S+]([O-])CC(F)(F)F)c2Cl)o1 (racemic) [Compound 3-440] | A (Fresh weight inhibition rate≥80% to 100%) | A (Fresh weight inhibition rate≥80% to 100%) | A (Fresh weight inhibition rate≥80% to 100%) | A (Fresh weight inhibition rate≥80% to 100%) | A (Fresh weight inhibition rate≥80% to 100%) | – | – | – | – | –
CCc1nnc(NC(=O)c2ccc(S(C)(=O)=O)c([S+]([O-])CC(F)F)c2Cl)o1 (racemic) [Compound 3-445] | A (Fresh weight inhibition rate≥80% to 100%) | A (Fresh weight inhibition rate≥80% to 100%) | A (Fresh weight inhibition rate≥80% to 100%) | A (Fresh weight inhibition rate≥80% to 100%) | A (Fresh weight inhibition rate≥80% to 100%) | – | – | – | – | –
C=CC[S+]([O-])c1c(S(C)(=O)=O)ccc(C(=O)Nc2nnc(CC)o2)c1Cl (racemic) [Compound 3-455] | A (Fresh weight inhibition rate≥80% to 100%) | A (Fresh weight inhibition rate≥80% to 100%) | A (Fresh weight inhibition rate≥80% to 100%) | A (Fresh weight inhibition rate≥80% to 100%) | A (Fresh weight inhibition rate≥80% to 100%) | – | – | – | – | –
CCc1nnc(NC(=O)c2ccc(S(C)(=O)=O)c([S+]([O-])CCCl)c2Cl)o1 (racemic) [Compound 3-495] | A (Fresh weight inhibition rate≥80% to 100%) | A (Fresh weight inhibition rate≥80% to 100%) | A (Fresh weight inhibition rate≥80% to 100%) | A (Fresh weight inhibition rate≥80% to 100%) | A (Fresh weight inhibition rate≥80% to 100%) | – | – | – | – | –
CC(C)c1nnc(NC(=O)c2ccc(S(C)(=O)=O)c([S+]([O-])CC3CC3)c2Cl)o1 (racemic) [Compound 3-531] | A (Fresh weight inhibition rate≥80% to 100%) | A (Fresh weight inhibition rate≥80% to 100%) | A (Fresh weight inhibition rate≥80% to 100%) | A (Fresh weight inhibition rate≥80% to 100%) | A (Fresh weight inhibition rate≥80% to 100%) | – | – | – | – | –
CC(C)c1nnc(NC(=O)c2ccc(S(C)(=O)=O)c([S+]([O-])C3CC3)c2Cl)o1 (racemic) [Compound 3-536] | A (Fresh weight inhibition rate≥80% to 100%) | B (Fresh weight inhibition rate≥260% to <80%) | A (Fresh weight inhibition rate≥80% to 100%) | A (Fresh weight inhibition rate≥80% to 100%) | A (Fresh weight inhibition rate≥80% to 100%) | – | – | – | – | –
CC(C)c1nnc(NC(=O)c2ccc(S(C)(=O)=O)c([S+]([O-])C3CCC3)c2Cl)o1 (racemic) [Compound 3-541] | C (Fresh weight inhibition rate≥40% to <60%) | B (Fresh weight inhibition rate≥260% to <80%) | A (Fresh weight inhibition rate≥80% to 100%) | A (Fresh weight inhibition rate≥80% to 100%) | A (Fresh weight inhibition rate≥80% to 100%) | – | – | – | – | –
CC(C)c1nnc(NC(=O)c2ccc(S(C)(=O)=O)c([S+]([O-])CC(F)(F)F)c2Cl)o1 (racemic) [Compound 3-556] | B (Fresh weight inhibition rate≥260% to <80%) | B (Fresh weight inhibition rate≥260% to <80%) | A (Fresh weight inhibition rate≥80% to 100%) | A (Fresh weight inhibition rate≥80% to 100%) | A (Fresh weight inhibition rate≥80% to 100%) | – | – | – | – | –
CCC[S+]([O-])c1c(S(C)(=O)=O)ccc(C(=O)Nc2nnc(C3CC3)o2)c1Cl (racemic) [Compound 3-616] | A (Fresh weight inhibition rate≥80% to 100%) | A (Fresh weight inhibition rate≥80% to 100%) | A (Fresh weight inhibition rate≥80% to 100%) | A (Fresh weight inhibition rate≥80% to 100%) | A (Fresh weight inhibition rate≥80% to 100%) | – | – | – | – | –
CC(C)[S+]([O-])c1c(S(C)(=O)=O)ccc(C(=O)Nc2nnc(C3CC3)o2)c1Cl (racemic) [Compound 3-621, 2-chloro-N-(5-cyclopropyl-1,3,4-oxadiazol-2-yl)-3-(isopropylsulfinyl)-4-(methylsulfonyl)benzamide] | – | – | – | – | – | 80 to 100 | 80 to 100 | 80 to 100 | 80 to 100 | 80 to 100
CCCC[S+]([O-])c1c(S(C)(=O)=O)ccc(C(=O)Nc2nnc(C3CC3)o2)c1Cl (racemic) [Compound 3-626] | A (Fresh weight inhibition rate≥80% to 100%) | A (Fresh weight inhibition rate≥80% to 100%) | A (Fresh weight inhibition rate≥80% to 100%) | A (Fresh weight inhibition rate≥80% to 100%) | A (Fresh weight inhibition rate≥80% to 100%) | – | – | – | – | –
